Results on 20 compounds are retold here after PubChem BioAssay AID328 (DTP/NCI, 2004).

The structures appear in SMILES notation. Values joined by “and” are separate entries in the source; they are usually repeats but may differ in a detail not shown here. Equal values may be shown once. Toxic doses and inconclusive results are not listed.

The assay relates to BDF1 mice, P388 leukemia ip, median survival T/C. Put plainly: NCI In Vivo Anticancer Drug Screen. Data for tumor model P388 Leukemia (intraperitoneal) in B6D2F1 (BDF1) mice. The following applies: endpoint: median survival time, higher = longer survival. A digest of the protocol: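 Each value expresses how treatment altered survival: treated-mouse outcome over vehicle-mouse outcome, both groups bearing the transplanted tumour.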

Where [1] appears, read: dose: 3.0 mg/kg/injection, schedule: Q01DX009 (ip), vehicle: saline.
[2] abbreviates: dose: 6.0 mg/kg/injection, schedule: Q01DX009 (ip), vehicle: saline.
The mark [3] stands for this setting: dose: 50.0 mg/kg/injection, schedule: Q01DX009 (ip), vehicle: saline with Tween-80.
Where [4] appears, read: dose: 100.0 mg/kg/injection, schedule: Q01DX009 (ip), vehicle: saline with Tween-80.
Where [5] appears, read: dose: 200.0 mg/kg/injection, schedule: Q01DX009 (ip), vehicle: saline with Tween-80.
[6] abbreviates: dose: 100.0 mg/kg/injection, schedule: Q04DX003 (ip), vehicle: Klucel (hydroxypropylcellulose) (HPC).
The mark [7] stands for this setting: dose: 200.0 mg/kg/injection, schedule: Q04DX003 (ip), vehicle: Klucel (hydroxypropylcellulose) (HPC).
[8] abbreviates: dose: 400.0 mg/kg/injection, schedule: Q04DX003 (ip), vehicle: Klucel (hydroxypropylcellulose) (HPC).
[9] abbreviates: dose: 400.0 mg/kg/injection, schedule: Q01DX009 (ip), vehicle: saline with Tween-80.
Setting [10] is: dose: 100.0 mg/kg/injection, schedule: Q04DX003 (ip), vehicle: saline with Tween-80.
Setting [11] is: dose: 200.0 mg/kg/injection, schedule: Q04DX003 (ip), vehicle: saline with Tween-80.
Setting [12] is: dose: 400.0 mg/kg/injection, schedule: Q04DX003 (ip), vehicle: saline with Tween-80.
[13] abbreviates: dose: 50.0 mg/kg/injection, schedule: Q04DX003 (ip), vehicle: saline with Tween-80.
The mark [14] stands for this setting: dose: 25.0 mg/kg/injection, schedule: Q01DX009 (ip), vehicle: saline with Tween-80.

`O=C(O)CCCc1ccc(N(CCCl)CCCl)cc1`: the T/C (dose: 0.25 mg/kg/injection, schedule: Q01DX009 (ip), vehicle: Klucel (hydroxypropylcellulose) (HPC)) was 123 % of control; the T/C (dose: 0.5 mg/kg/injection, schedule: Q01DX009 (ip), vehicle: Klucel (hydroxypropylcellulose) (HPC)) was 105 % of control; the T/C (dose: 1.5 mg/kg/injection, schedule: Q01DX009 (ip), vehicle: Klucel (hydroxypropylcellulose) (HPC)) is 171 % of control; the T/C (dose: 2.0 mg/kg/injection, schedule: Q01DX009 (ip), vehicle: Klucel (hydroxypropylcellulose) (HPC)) was 165 % of control; the T/C under setting [1] was 99 % of control and 100 % of control; the T/C (dose: 3.13 mg/kg/injection, schedule: Q01DX010 (ip), vehicle: saline) was 100 % of control. For the same compound, the T/C was 105 % of control under setting [2]; 122 % of control (dose: 12.0 mg/kg/injection, schedule: Q01DX009 (ip), vehicle: saline); 172 % of control (dose: 12.5 mg/kg/injection, schedule: Q01DX010 (ip), vehicle: saline); 88 % of control (dose: 24.0 mg/kg/injection, schedule: Q01DX009 (ip), vehicle: saline).

As for `C=C(C)CP(=O)(c1ccccc1)c1ccccc1`, the T/C runs as follows: under setting [3], 96 % of control; under setting [4], 100 % of control; under setting [5], 91 % of control.

On to `CCCCCCCCCC(=O)NC(COC1OC(CO)C(O)C(O)C1O)C(O)c1ccccc1` (stereo not drawn), for which the T/C was 98 % of control (dose: 25.0 mg/kg/injection, schedule: Q01DX009 (ip), vehicle: suspension in saline); 108 % of control (dose: 50.0 mg/kg/injection, schedule: Q01DX009 (ip), vehicle: suspension in saline); 102 % of control (dose: 100.0 mg/kg/injection, schedule: Q01DX009 (ip), vehicle: suspension in saline).

With `ClC[P+](c1ccccc1)(c1ccccc1)c1ccccc1`, the T/C reads like this: under setting [1], 120 % of control; under setting [2], 116 % of control; (dose: 12.5 mg/kg/injection, schedule: Q04DX003 (ip), vehicle: saline) 100 % of control.

As for `CC(=O)NCCCCCC(=O)O`, the T/C is, setting by setting: (dose: 100.0 mg/kg/injection, schedule: Q01DX009 (ip), vehicle: Klucel (hydroxypropylcellulose) (HPC)) 90 % of control; under setting [6], 95 % of control; (dose: 200.0 mg/kg/injection, schedule: Q01DX009 (ip), vehicle: Klucel (hydroxypropylcellulose) (HPC)) 90 % of control; under setting [7], 95 % of control; (dose: 400.0 mg/kg/injection, schedule: Q01DX009 (ip), vehicle: Klucel (hydroxypropylcellulose) (HPC)) 109 % of control; under setting [8], 109 % of control.

Take `Fc1c(Cl)c(Cl)c(Cl)c(Cl)c1Cl`: the T/C was 104 % of control (dose: 44.0 mg/kg/injection, schedule: Q01DX009 (ip), vehicle: other); 100 % of control (dose: 66.0 mg/kg/injection, schedule: Q01DX009 (ip), vehicle: other); 95 % of control (dose: 100.0 mg/kg/injection, schedule: Q01DX009 (ip), vehicle: other); 100 % of control under setting [6]; 91 % of control (dose: 150.0 mg/kg/injection, schedule: Q01DX009 (ip), vehicle: other); 105 % of control under setting [5]. The T/C is, setting by setting: under setting [7], 90 % of control; under setting [9], 90 % of control; under setting [8], 100 % of control.

Regarding `CCCCCCC/C=C\c1cnc2nc(N)nc(N)c2n1`, the T/C runs as follows: under setting [10], 92 % of control; under setting [11], 89 % of control; under setting [12], 92 % of control.

Take `OCCN(CCO)c1cc(O)cc(O)c1`: the T/C runs as follows: under setting [10], 106 % of control; under setting [11], 120 % of control; under setting [12], 117 % of control.

Consider `CCCNC(C)(C)C(SS)c1ccc(C(F)(F)F)cc1` (stereo not drawn), for which the T/C runs as follows: (dose: 12.5 mg/kg/injection, schedule: Q04DX003 (ip), vehicle: other) 100 % of control; (dose: 25.0 mg/kg/injection, schedule: Q04DX003 (ip), vehicle: other) 110 % of control; (dose: 50.0 mg/kg/injection, schedule: Q04DX003 (ip), vehicle: other) 105 % of control.

Take `CCCCCCCCCCCCCC(=O)[O][Sn]([CH2]CCC)([CH2]CCC)[O]C(=O)CCCCCCCCCCCCC`: the T/C reads like this: (dose: 0.78 mg/kg/injection, schedule: Q04DX003 (ip), vehicle: other) 104 % of control; (dose: 1.56 mg/kg/injection, schedule: Q04DX003 (ip), vehicle: other) 109 % of control; (dose: 3.13 mg/kg/injection, schedule: Q04DX003 (ip), vehicle: other) 113 % of control.

Consider `CCCCCCCCCCC(N)P(=O)(O)O` (stereo not drawn), for which the T/C runs as follows: (dose: 12.5 mg/kg/injection, schedule: Q04DX003 (ip), vehicle: saline with Tween-80) 92 % of control; (dose: 25.0 mg/kg/injection, schedule: Q04DX003 (ip), vehicle: saline with Tween-80) 92 % of control; under setting [13], 92 % of control.

For `FC1(F)C(F)(F)C(Cl)(Cl)C1(Cl)Cl`, the T/C (dose: 75.0 mg/kg/injection, schedule: Q01DX001 (ip), vehicle: saline) was 100 % of control; the T/C (dose: 150.0 mg/kg/injection, schedule: Q01DX001 (ip), vehicle: saline) is 109 % of control; the T/C (dose: 300.0 mg/kg/injection, schedule: Q01DX001 (ip), vehicle: saline) was 104 % of control.

For `c1ccncc1`, the T/C is 96 % of control (dose: 100.0 mg/kg/injection, schedule: Q04DX003 (ip), vehicle: saline); 102 % of control (dose: 200.0 mg/kg/injection, schedule: Q04DX003 (ip), vehicle: saline); 105 % of control (dose: 400.0 mg/kg/injection, schedule: Q04DX003 (ip), vehicle: saline).

Take `Cn1cnc([N+](=O)[O-])c1Sc1nc(N)nc2nc[nH]c12`: the T/C (dose: 7.0 mg/kg/injection, schedule: Q01DX009 (ip), vehicle: saline with Tween-80) was 190 % of control; the T/C (dose: 11.0 mg/kg/injection, schedule: Q01DX009 (ip), vehicle: saline with Tween-80) was 190 % of control; the T/C (dose: 16.5 mg/kg/injection, schedule: Q01DX009 (ip), vehicle: saline with Tween-80) was 96 % of control.

Regarding `NC(=O)N/C=C1\CCCOC1=O`, the T/C is, setting by setting: under setting [13], 111 % of control; under setting [10], 101 % of control; under setting [11], 104 % of control; under setting [12], 109 % of control.

Turning to `CCOC(=O)CN1C=C(C(=O)c2cc3ccccc3[nH]2)CCC1`, the T/C is, setting by setting: (dose: 0.06 mg/kg/injection, schedule: Q01DX009 (ip), vehicle: saline) 105 % of control; (dose: 0.12 mg/kg/injection, schedule: Q01DX009 (ip), vehicle: saline) 105 % of control; (dose: 0.25 mg/kg/injection, schedule: Q01DX009 (ip), vehicle: saline) 105 % of control; (dose: 0.5 mg/kg/injection, schedule: Q01DX009 (ip), vehicle: saline) 100 % of control; (dose: 1.0 mg/kg/injection, schedule: Q01DX009 (ip), vehicle: saline) 105 % of control; (dose: 2.0 mg/kg/injection, schedule: Q01DX009 (ip), vehicle: saline) 110 % of control. The T/C is 99 % of control (dose: 4.0 mg/kg/injection, schedule: Q01DX009 (ip), vehicle: saline); 98 % of control (dose: 8.0 mg/kg/injection, schedule: Q01DX009 (ip), vehicle: saline); 93 % of control (dose: 16.0 mg/kg/injection, schedule: Q01DX009 (ip), vehicle: saline); 98 % of control (dose: 32.0 mg/kg/injection, schedule: Q01DX009 (ip), vehicle: saline).

Take `O=C(Cn1ccnc1[N+](=O)[O-])NCc1ccccc1`: the T/C by setting is: under setting [3], 99 % of control; under setting [4], 94 % of control; under setting [5], 100 % of control.

Turning to `OC(CCl)Cc1ccccc1` (stereo not drawn), the T/C under setting [14] was 109 % of control and the T/C under setting [3] was 109 % of control.

In the case of `Clc1cccc(-c2nc3ccccc3c3ccccc23)c1`, the T/C by setting is: under setting [4], 105 % of control; under setting [5], 120 % of control; under setting [9], 95 % of control.

Regarding `CCC/C=C/C=C/C1CC(O)C(O)C(=O)C1C=O` (stereo not drawn), the T/C by setting is: (dose: 12.5 mg/kg/injection, schedule: Q01DX009 (ip), vehicle: saline with Tween-80) 108 % of control; under setting [14], 100 % of control; under setting [3], 101 % of control.
